Measurements taken from paper PMC5974124, “Equilibrium Thermodynamics, Formation, and Dissociation Kinetics of Trivalent Iron and Gallium Complexes of Triazacyclononane-Triphosphinate (TRAP) Chelators: Unraveling the Foundations of Highly Selective Ga-68 Labeling” (Frontiers in Chemistry, 2018).
Read-outs that look alike come from different tables or passages of the source. Marks after values point to notes of the source that are not given here. Values belong to the molecule of their own block, whether it stands above or below them.

Key:
[1] = cited from earlier work; for log β3OH hydrolysis constant: M(OH)3, ref Baes and Mesmer; for log β3OH hydrolysis constant / log β2OH hydrolysis constant / log β1OH hydrolysis constant: [1976]; for log β2OH hydrolysis constant: [M(OH)2]^+; for log β1OH hydrolysis constant: [M(OH)]^2+
[2] = Fe^III, 25°C, cited from earlier work
[3] = 25°C, cited from earlier work
[4] = Stability and protonation constants of Fe^III complexes (pH-potentiometry, spectrophotometry, competition with Bha^−); format: physicochemical; conditions: 0.15 M NaNO3, 25°C
Method: Stability constant of [Fe(Bha)]^2+ complex was determined by spectrophotometry, studying the Fe^III-HBha systems at the absorption band of Fe^III-complex over the wavelength range of 400–800 nm in two sets of experiments. Individual samples were prepared in the first series in which the concentrations of Fe^III and HBha was constant 0.2 and 2.0 mM, while that of the H^+ was varied between […] (eight samples, Figure S1). The H^+ concentration in the samples was adjusted by addition of calculated amounts of 2.0 M HNO3. The ionic strength was constant in the samples with [H^+] < 0.15 M ([H^+]+[Na^+] = 0.15 M). Samples were kept at 25°C for a week. Absorbance values were determined at 11 wavelengths (400, 415, 430, 445, 460, 475, 490, 505, 520, 535, and 550 nm). In the second set, spectrophotometric titrations were done with samples containing HBha ligand in 2.0 mM concentration, whereas the concentration of Fe^III was varied between 0.1–0.3 mM (Figures S2–S4). The pH of the samples was adjusted using concentrated NaOH and HNO3 solutions in the pH range 1.7–11.0 (0.15 M NaNO3 and 25°C). For calculation of the equilibrium constants, the best fit of the absorbance–pH data was obtained by assuming formation of [Fe(Bha)]^2+, [Fe(Bha)2]^+, [Fe(Bha)3], and [Fe(Bha)2(OH)2]^− species (Figure S5). The molar absorptivity of [Fe(Bha)]^2+, [Fe(Bha)2]^+, [Fe(Bha)3] and [Fe(Bha)2(OH)2]^− species were also determined at the same 11 wavelengths in these experiments (Figure S6).
The stability constant of the [Fe(TRAP)]^3− complex has been determined by spectrophotometry, using competition reactions between HTRAP^5− and Bha^− for Fe^III at pH = 10.0. Concentration of [Fe(TRAP)]^3− was 0.2 mM, while that of HBha was varied between 0.0 and 1.5 mM (6 samples). The samples were kept at 25°C for 2 weeks. Absorbance values of the Fe^III-HTRAP^5−-Bha^− systems were determined at 11 wavelengths (400, 415, 430, 445, 460, 475, 490, 505, 520, 535, and 550 nm). The molar absorptivities of [Fe(TRAP)]^3− and [Fe(TRAP)OH]^4− in equilibrium solutions were determined by recording the absorption spectra of 0.1, 0.2, and 0.3 mM solution of [Fe(TRAP)]^3− in the pH range 6.0–12.0. The molar absorptivity of [Fe(Bha)2(OH)2]^− species was determined in the separate experiments. Absorbance and pH values were determined in the samples after equilibration (the time needed to reach the equilibria was determined by spectrophotometry). Spectrophotometric measurements were done using 1.0 cm cells with a Cary 1E spectrophotometer at 25°C. Protonation constants of the Fe^III complex formed with TRAP^6− were determined by direct pH-potentiometric titration at 1:1 metal to ligand ratios (both concentrations were 0.002 M). For calculation of the logKMHiL values, the mL base–pH data used were measured in the pH range 1.7 −12.0.
For pH measurements and titrations, a Metrohm 785 DMP Titrino titration workstation and a Metrohm-6.0233.100 combined electrode were used. Equilibrium measurements were carried out at a constant ionic strength (0.15 M NaNO3 or NaCl) in 6 mL samples at 25°C. Solutions were stirred and continuously purged with N2. Titrations were performed in a pH range of 1.7–12.0. […] For calculation of [H^+] from measured pH values, the method proposed by Irving et al. was used (Irving et al., [1967]). […] Differences between the measured (pHread) and calculated pH (–log[H^+]) values were used to obtain the equilibrium H^+ concentration from the pH values, measured in the titration experiments. […]

[5] = 25°C, cited from earlier work; remark: listed apart in the source
[6] = Protonation constants of ligands by pH-potentiometry; format: physicochemical; conditions: 0.15 M NaNO3, 25°C
Method: For determining the protonation constants of H6TRAP and H3NOTA ligands three parallel pH-potentiometric titration were made with 0.2 M NaOH in 0.002 M ligand solutions.
For pH measurements and titrations, a Metrohm 785 DMP Titrino titration workstation and a Metrohm-6.0233.100 combined electrode were used. Equilibrium measurements were carried out at a constant ionic strength (0.15 M NaNO3 or NaCl) in 6 mL samples at 25°C. Solutions were stirred and continuously purged with N2. Titrations were performed in a pH range of 1.7–12.0. KH-phthalate (pH = 4.005) and borax (pH = 9.177) buffers were used to calibrate the pH meter. For calculation of [H^+] from measured pH values, the method proposed by Irving et al. was used (Irving et al., [1967]). A 0.01 M HNO3 or HCl solution was titrated with the standardized NaOH solution in the presence of 0.15 M NaNO3 or NaCl. Differences between the measured (pHread) and calculated pH (–log[H^+]) values were used to obtain the equilibrium H^+ concentration from the pH values, measured in the titration experiments. For equilibrium calculations, the stoichiometric water ionic product (pKw) is also needed to calculate [H^+] values in basic conditions. The VNaOH–pHread data pairs of the HNO3–NaOH or HCl–NaOH titration obtained in the pH range 10.5–12.0 have been used to calculate the pKw value (pKw = 13.84). For calculation of the equilibrium constants, the program PSEQUAD (Zekany and Nagypal, [1985]) was used. The standard deviation (SD) of the equilibrium parameters calculated by the program PSEQUAD is defined by Equation (1)
Protonation equilibria of the TRAP^6−, NOTA^3− and Bha^− ligands were studied by pH-potentiometry. The protonation constants (log KiH ) of ligands defined by Equation (3) are listed in Table 1 (standard deviations are shown in parentheses). The charges of ligands and complexes will be indicated when it is necessary.
(3) KiH=[HiL]/[Hi−1L][H^+] i=0,1,2…6

[7] = set-up: method as in Brucher and Sherry, [1990]; conditions: 25°C, ref Brucher and Sherry, [1990]; cited from earlier work
[8] = set-up: method as in Notni et al., [2010]; Baranyai et al., [2015]; conditions: Zn^II, ref Notni et al., [2010]; Baranyai et al., [2015]; cited from earlier work
[9] = 0.1 M KCl, ref Clarke and Martell, [1991]
[10] = Ga^III, 0.1 M Me4NCl, ref Simecek et al., [2012]
[11] = 0.1 M Me4NCl, ref Drahos et al., [2011]
[12] = 0.15 M NaCl, ref Baranyai et al., [2015]
[13] = 0.2 M KCl, ref Farkas et al., [1998]
[14] = ref Baes and Mesmer, listed as Fe^3+

SMILES: [Ga+3] [Ga^III]
log β3OH hydrolysis constant [1]: −8.2
log β2OH hydrolysis constant ([1]; ref Baes and Mesmer): −5.92
log β1OH hydrolysis constant ([1]; ref Baes and Mesmer): −2.97

logK M(L)OH [4]: 9.12(4)^e
log K1H protonation constant [6]: 11.94(2)
log K2H protonation constant [6]: 5.71(3)
log K3H protonation constant [6]: 3.14(3)
log K4H protonation constant [6]: 1.60(2)
Σlog KiH total ligand basicity ([6]; for TRAP^6− log K3H, K4H, K5H not considered): 22.39
SMILES: O=C(O)CN1CCN(CC(=O)O)CCN(CC(=O)O)CC1 [NOTA^3−, 1,4,7-triazacyclononane-1,4,7-triacetic acid]
logK ML stability constant [2, 9]: 28.3
logK M(L)OH [3, 10]: 9.83
logK MHL protonation constant of complex [3, 10]: 0.9
logK ML stability constant [3, 10]: 29.60
log K1H protonation constant [5, 9]: 11.98
log K2H protonation constant [5, 9]: 5.65
log K3H protonation constant [5, 9]: 3.18
log K1H protonation constant [5, 11]: 13.17
log K2H protonation constant [5, 11]: 5.74
log K3H protonation constant [5, 11]: 3.22
log K4H protonation constant [5, 11]: 1.96
Σlog KiH total ligand basicity [5, 11]: 24.09
log K1H protonation constant [5, 12]: 12.16
log K2H protonation constant [5, 12]: 5.75
log K3H protonation constant [5, 12]: 3.18
log K4H protonation constant [5, 12]: 1.90
Σlog KiH total ligand basicity ([5]; 0.15 M NaCl, for TRAP^6− log K3H, K4H, K5H not considered, ref Baranyai et al., [2015]): 22.99

SMILES: O=C([O-])CN1CCN(CC(=O)[O-])CCN(CC(=O)[O-])CC1.[Gd+3] [[Gd(NOTA)]]
kOH formation rate constant [7]: 7.1e+07 M⁻¹ s⁻¹

SMILES: O=C([O-])CCP(=O)(O)CN1CCN(CP(=O)(O)CCC(=O)[O-])CCN(CP(=O)(O)CCC(=O)O)CC1.[Zn+2] [[Zn(TRAP)]^4−]
logKML stability constant [8]: 16.07

SMILES: O=C([O-])CN1CCN(CC(=O)[O-])CCN(CC(=O)[O-])CC1.[Ce+3] [[Ce(NOTA)]]
kOH formation rate constant [7]: 6.3e+07 M⁻¹ s⁻¹

SMILES: O=C([O-])CN(CCN(CC(=O)[O-])Cc1ccccc1[O-])Cc1ccccc1[O-].[Ga+3] [[Ga(HBED)]^−]
logKGa(HBED) stability constant ([3]; 0.1 M KCl, ref Ma et al., [1994]): 38.51

SMILES: O=C([O-])CN1CCN(CC(=O)[O-])CCN(CC(=O)[O-])CC1.[Er+3] [[Er(NOTA)]]
kOH formation rate constant [7]: 5.5e+07 M⁻¹ s⁻¹

SMILES: O=C(NO)c1ccccc1 [Bha^−, benzhydroxamic acid]
logK ML2 [2, 13]: 10.12
logK ML3 [2, 13]: 7.60
logK ML stability constant [2, 13]: 11.08
logK ML2 [4]: 9.03(2)
logK ML3 [4]: 7.41(3)
logK ML stability constant [4]: 10.80(2)
logβFeL2(OH)2 [4]: 6.68(5)
log K1H protonation constant [5, 13]: 8.69
log K1H protonation constant [6]: 8.53(3)

SMILES: [Fe+3] [Fe^III]
log β3OH hydrolysis constant [1]: −12.0
log β3OH hydrolysis constant ([1]; listed as Fe^3+): –12.0
logβ4^OH hydrolysis constant ([1]; [Fe(OH)4]^-, ref Baes and Mesmer, 1976): –21.6
log β2OH hydrolysis constant ([1]; ref Baes and Mesmer): −5.67
log β2OH hydrolysis constant [1, 14]: –5.67
log β1OH hydrolysis constant ([1]; ref Baes and Mesmer): −2.19
log β1OH hydrolysis constant [1, 14]: –2.19
